From PubChem BioAssay AID2305 (GlaxoSmithKline (GSK), 2010) come the findings set out here.

pIC50: −log10 of the molar value.

The experiment relates to P. falciparum 3D7 growth, pLDH absorbance. The experiment in a line: blood-stage malaria parasite growth potency – strain 3D7, dose response (AID 2305).
What is called pIC50 is −log10 of the IC50, conventionally taken in molar units. A low value points to a large IC50. Take `CC1CC(NCCCNc2cc(=O)c3ccccc3[nH]2)c2c1cc(Cl)c(Cl)c2Cl` (stereo not drawn): the pIC50 is 6.08.

Molecule `Cc1nnsc1C(=O)Nc1ccc(-c2cccc(-c3nc4ccc(F)cc4[nH]3)c2)cc1` showed a pIC50 of 6.11.

As for `COc1ccccc1CCNc1ncc(F)c(N[C@@H](Cc2ccccc2)C(=O)NCCc2ccccc2)n1`, the pIC50 was 6.02.

`Cc1cccc2[nH]c(-c3ccc(-c4cccc(CN5CCN(c6ccncc6)CC5)c4)s3)nc12` gave a negative logarithm of the IC50 (pIC50) of 6.89.

`O=S(=O)(c1ccc2ccccc2c1)N1CCCN(Cc2ccc(OCCCN3CCCCC3)cc2)CC1` had a pIC50 of 5.96.

In the case of `NC1=NC(c2ccccc2)(c2ccccc2)C(=O)N1C1CCCCC1`, the pIC50 is 6.18. Against the preceding molecule, the pIC50 is 0.22 log units higher.

`CCSc1nc2sc3c(c2c(=O)n1-c1ccccc1)CCN(C)C3` gave a pIC50 of 6.34. The pIC50 values of the last two molecules are within 0.2 log units of each other.

In turn, `COc1ccc2nccc(N3CCC(NCc4ccc5c(n4)NC(=O)CS5)CC3)c2n1` gave a pIC50 of 6.07.

`CN1CC=C(c2c[nH]c3ccc(-c4ccccc4)cc23)CC1` gave a pIC50 of 6.11.

Turning to `Fc1ccc(-c2csc3ncnc(Cl)c23)cc1`, the pIC50 is 6.48. Compared with the last molecule, the pIC50 is 0.37 log units higher.

Turning to `CCCCNC(=O)[C@H](CC1CCCCC1)NC(=O)c1ccc(O)c(-c2ccc(Cl)c(Cl)c2)c1`, the pIC50 is 6.80.

`O=C(c1ccc(Cl)cc1)N1CCCC(C(=O)N(Cc2nnc(-c3ccccc3Cl)o2)C2CC2)C1` (stereo not drawn) gave a pIC50 of 6.64.

`O=C(NCCCCN1CCC(C(c2ccccc2)c2ccccc2)CC1)c1ccc(NC(=O)c2ccc(Cl)cc2)cc1` showed a pIC50 of 6.11.

In the case of `COCCN(C)c1ccc(C(=O)Nc2ccccc2)cc1NS(=O)(=O)Cc1ccccc1`, the pIC50 was 6.24.

`CC(C)CCn1c(Sc2ccc([N+](=O)[O-])cc2C(F)(F)F)nnc1-c1ccccc1Cl` had a pIC50 of 6.04. This pIC50 is 0.20 log units lower than that of the molecule before.

For `COC(C(=O)OCCC1CCCN1C)(c1ccccc1)C1CCCCC1` (stereo not drawn), the pIC50 is 6.15.

Turning to `O=C(Nc1cccc(CN2CCN(Cc3ccc(O)cc3)CC2)c1)c1ccc(Cl)c(Cl)c1`, the pIC50 was 6.60. Compared with the last molecule, the pIC50 is 0.45 log units higher.

As to `CCN1CCN(CCCNc2ccnc3cc(Cl)ccc23)CC1`, the pIC50 is 7.15. This pIC50 is 0.55 log units higher than that of the molecule before.

As for `Nc1ccc(-c2nc3ccc(Cc4ccc5nc(-c6ccc(N)cc6)[nH]c5c4)cc3[nH]2)cc1`, the pIC50 is 6.29.

Take `COc1cc2c(cc1N(C(C)C)S(=O)(=O)c1sc3ccc(Cl)cc3c1C)CCNCC2`: the pIC50 is 5.98.

Molecule `Cc1ccc(O)c(C(=O)c2cnc3c(c2)c(-c2ccc(F)cc2)c(C#N)c(=O)n3C)c1` had a pIC50 of 6.01.

`Cc1ccc(NC(=O)c2ccc(CN3CCCN(CC4CCCCC4)CC3)cc2)cc1F` gave a pIC50 of 6.54.

Molecule `CCCC(N)C(=O)NC1CCN(c2c(F)c(N)c3c(=O)c(C(=O)O)cn4c3c2Oc2ccccc2-4)C1` (stereo not drawn) showed a pIC50 of 6.44.

As for `CN(CCNCc1ccc(-c2cccc(-c3nc4ccccc4[nH]3)c2)cc1)S(C)(=O)=O`, the pIC50 is 6.02. This pIC50 lies 0.42 log units lower than the previous one.

As to `O=C(Nc1cccc(CN2CCCN(Cc3ccccc3)CC2)c1)c1ccc(Cl)c(Cl)c1`, the pIC50 was 6.05.

The molecule `N#Cc1ccc(N2CCN(Cc3ccc(-c4ccc(-c5nc6ccc(C(F)(F)F)cc6[nH]5)cc4)cc3)CC2)nc1` had a pIC50 of 6.02.

In turn, `COc1cc2nc(SCCCC#N)n(C3CCCCCC3)c(=N)c2cc1OC` showed a pIC50 of 5.94. The pIC50 values of the last two molecules are within 0.2 log units of each other.

For the molecule `Cc1ccccc1C1CCN(C2CCC(NC(=O)/C=C/c3cc(C(F)(F)F)ccc3F)CC2)CC1` (stereo not drawn), the pIC50 was 6.08.

As to `Cc1ccccc1C1CCN(C2CCC(NC(=O)/C=C/c3cc(F)ccc3C(F)(F)F)CC2)CC1` (stereo not drawn), the pIC50 was 6.02.

As for `CCOc1ccc2nc(C)cc(NN=Cc3ccncc3)c2c1`, the pIC50 is 6.00.

Molecule `COc1cc2nc(NC3CCN(Cc4ccccc4)CC3)nc(N)c2cc1OC` gave a pIC50 of 6.77. This pIC50 is 0.77 log units higher than that of the molecule before.

As to `O=C(NOCc1ccccc1)c1cc(Cl)ccc1O`, the pIC50 is 5.96.

Molecule `CCc1cccc2c(C#N)cn(CC(=O)Nc3ccc(OC)cc3)c12` gave a pIC50 of 6.11.

For the molecule `O=C(NCc1ccc(F)cc1)Nc1ccc(-c2ccc(-c3nc4ccccc4[nH]3)cc2)cc1`, the pIC50 was 7.05.

`Brc1ccccc1CNc1ccnc(NCCn2ccnc2)n1` had a pIC50 of 6.05. This pIC50 is 1.00 log units lower than that of the molecule before.

For `CCC(C)NS(=O)(=O)c1ccc2nc(Nc3cccc(SC)c3)n(C(C)C(C)C)c2c1` (stereo not drawn), the pIC50 was 6.30.

On to `Cc1ccc(C)c(NC(=O)NC2CCN(c3ccnc(Nc4ccc(F)cc4)n3)C2)c1` (stereo not drawn), for which the pIC50 is 6.17.

With `Cc1[nH]c(C)c(-c2ccc(Oc3cccc(OC(F)(F)F)c3)cc2)c(=O)c1Cl`, the pIC50 was 6.17.

The molecule `O=[N+]([O-])c1ccc(Nc2nc(NCc3ccccc3)nc(NN=Cc3ccccc3[N+](=O)[O-])n2)cc1` gave a pIC50 of 6.80. Compared with the last molecule, the pIC50 is 0.63 log units higher.

The molecule `c1ccc(-n2ncc(CNCc3ccc(-c4ccc(-c5nc6ccccc6[nH]5)s4)cc3)n2)cc1` gave a negative-log IC50 (pIC50) of 5.85.

For `COc1ccc(CNCc2ccccc2)cc1-c1cccc(S(=O)(=O)NCCN2CCCC2)c1`, the pIC50 was 6.10.

Turning to `CN1CCN(c2ccc(CNc3ccc4ncc(-c5cccc(OC(F)(F)F)c5)n4n3)cc2)CC1`, the pIC50 was 6.07.

The molecule `O=S(=O)(Nc1cccc(CCN2CCCCC2CCN2CCCC2)c1)c1cccc2ccccc12` (stereo not drawn) gave a pIC50 of 6.09.

`Cc1ccc(Cc2cnc(NCCSCc3ccc(CN(C)C)s3)[nH]c2=O)cn1`: the pIC50 is 6.07.

Turning to `Cc1ccc(Cn2nc(Cl)c(N3CCCNCC3)cc2=O)cc1NC(=O)Nc1ccc(-c2ccccc2)cc1`, the negative logarithm of the IC50 (pIC50) is 6.17.

Take `Cc1[nH]c(C)c(-c2ccc(Oc3cccc(OC(F)(F)F)c3)cc2)c(=O)c1Br`: the negative-log IC50 (pIC50) is 7.70.

`COCCn1ccc2c3c(N)nc(N)nc3ccc21` gave a pIC50 of 6.68.

Take `Fc1ccc2nc(-c3ccc(-c4ccc(CN5CCCCC5)cc4)s3)[nH]c2c1`: the pIC50 was 6.22.

Regarding `O=C(NCc1ccc(Cl)c(Cl)c1)c1cc(CNC2CCNCC2)ccc1O`, the pIC50 is 6.07.

For the molecule `COc1ccc(NC(=O)c2ccc(Br)c(C)c2)cc1N1CCN(CCCc2c[nH]c3ccccc23)CC1`, the pIC50 is 6.42. Compared with the last molecule, the pIC50 is 0.35 log units higher.

In turn, `COc1ccc(-c2ccc(CNCc3ccc(F)cc3)cc2)cc1S(=O)(=O)NCCN1CCCC1` showed a pIC50 of 6.14.

Turning to `CC(=O)c1ccc2cc(C(=O)NC3CCC(CCN4CCc5ccc(-c6noc(C)n6)cc5CC4)CC3)[nH]c2c1` (stereo not drawn), the pIC50 is 6.02. The pIC50 values of the last two molecules are within 0.2 log units of each other.

As for `Cc1ccc(Cn2c(N3CCC(C(=O)NCc4ccccn4)CC3)nc3ccccc32)cc1`, the pIC50 was 6.39.

Molecule `CC(C)(C)c1ccc(NC(=O)c2cccc(CN3CCCN(Cc4cccc(Cl)c4)CC3)c2)cc1` had a pIC50 of 6.00. This pIC50 is 0.39 log units lower than that of the molecule before.

For the molecule `O=C(NC1CCN(Cc2ccccc2)CC1)c1cccc(-c2nc3ccc(Cl)cc3[nH]2)c1`, the pIC50 is 6.07.

As to `COc1cccc(CCN(Cc2ccccc2-c2ccc(CNC3CC(C)(C)NC(C)(C)C3)cc2)C(=O)NC2CCCCC2)c1`, the pIC50 was 6.03. The pIC50 values of the last two molecules are within 0.2 log units of each other.

Molecule `COc1ccc(C(=O)NCCCCN2CCC(c3ccc4c(c3OC)CCCC4)CC2)cc1-c1ccc(C(F)(F)F)cc1` gave a pIC50 of 6.12. The pIC50 values of the last two molecules are within 0.2 log units of each other.

On to `COc1ccc2nccc(N3CCC(SCCNCc4ccc5c(n4)NC(=O)CS5)C3)c2n1` (stereo not drawn), for which the pIC50 is 6.60. Compared with the last molecule, the pIC50 is 0.48 log units higher.

Consider `OC(CN1CCN(Cc2ccccc2)CC1)Cn1c(-c2ccccc2)c(-c2ccccc2)c2ccccc21` (stereo not drawn), for which the pIC50 was 6.15.

In the case of `Brc1cc(Br)c2c(c1)C(NCCCNC1CCNc3c(Br)cc(Br)cc31)CCN2` (stereo not drawn), the pIC50 was 6.09.

Take `CCNc1cc(C)nc(Nc2ccc(NC(=O)c3ccccc3Br)cc2)n1`: the pIC50 is 6.13. The pIC50 values of the last two molecules are within 0.2 log units of each other.

As to `CCc1ccc(NC(=O)c2ccc(CN3CCCN(Cc4cccc(O)c4)CC3)cc2)cc1`, the pIC50 is 6.17.

`CC(C)(C)C(Cn1ccnc1)NCc1cn[nH]c1-c1ccc(-c2ccccc2)cc1` (stereo not drawn): the pIC50 is 5.97.
